Toxic doses and inconclusive results are not listed. Cut-off read from the data, not from the text of the source: active = T/C of 150% or more; inactive = T/C below 125%.
Tested on: L1210 leukemia ip in BDF1 mice, survival T/C
Assay: NCI In Vivo Anticancer Drug Screen. Data for tumor model L1210 Leukemia (intraperitoneal) in B6D2F1 (BDF1) mice
Conditions: endpoint: mean survival time, higher = longer survival
How it was run: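 Mice bearing the transplanted tumor received compound or vehicle. Survival of the treated group was divided by that of the vehicle-treated control group to give the ratio.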

[1] = dose: 25.0 mg/kg/injection, schedule: Q01DX009 (ip), vehicle: Klucel (hydroxypropylcellulose) (HPC)
[2] = dose: 25.0 mg/kg/injection, schedule: Q04DX003 (ip), vehicle: saline
[3] = dose: 50.0 mg/kg/injection, schedule: Q04DX003 (ip), vehicle: saline
[4] = dose: 100.0 mg/kg/injection, schedule: Q01DX009 (ip), vehicle: Klucel (hydroxypropylcellulose) (HPC)
[5] = dose: 200.0 mg/kg/injection, schedule: Q04DX003 (ip), vehicle: saline
[6] = dose: 400.0 mg/kg/injection, schedule: Q04DX003 (ip), vehicle: saline
[7] = dose: 100.0 mg/kg/injection, schedule: Q01DX009 (ip), vehicle: saline with Tween-80
[8] = dose: 200.0 mg/kg/injection, schedule: Q01DX009 (ip), vehicle: saline with Tween-80
[9] = dose: 100.0 mg/kg/injection, schedule: Q04DX003 (ip), vehicle: saline
[10] = dose: 6.25 mg/kg/injection, schedule: Q01DX009 (ip), vehicle: saline
[11] = dose: 100.0 mg/kg/injection, schedule: Q04DX003 (ip), vehicle: saline with Tween-80
[12] = dose: 200.0 mg/kg/injection, schedule: Q04DX003 (ip), vehicle: saline with Tween-80
[13] = dose: 400.0 mg/kg/injection, schedule: Q04DX003 (ip), vehicle: saline with Tween-80
[14] = dose: 400.0 mg/kg/injection, schedule: Q01DX009 (ip), vehicle: saline with Tween-80
[15] = dose: 100.0 mg/kg/injection, schedule: Q04DX003 (ip), vehicle: Klucel (hydroxypropylcellulose) (HPC)
[16] = dose: 200.0 mg/kg/injection, schedule: Q04DX003 (ip), vehicle: Klucel (hydroxypropylcellulose) (HPC)
[17] = dose: 400.0 mg/kg/injection, schedule: Q04DX003 (ip), vehicle: Klucel (hydroxypropylcellulose) (HPC)

Measured: T/C

Cc1cc(C)cc(OCC2CNC(=O)O2)c1 (stereo not drawn)
inactive: [1] 101 % of control | [2] 90 % of control | dose: 50.0 mg/kg/injection, schedule: Q01DX009 (ip), vehicle: Klucel (hydroxypropylcellulose) (HPC) 114 % of control | [3] 92 % of control | [4] 100 % of control | dose: 200.0 mg/kg/injection, schedule: Q01DX009 (ip), vehicle: Klucel (hydroxypropylcellulose) (HPC) 100 % of control | [5] 90 % of control | dose: 400.0 mg/kg/injection, schedule: Q01DX009 (ip), vehicle: Klucel (hydroxypropylcellulose) (HPC) 103 % of control | [6] 113 % of control

Cc1ccc(SC(=S)Sc2ccc(C)cc2)cc1
inactive: dose: 50.0 mg/kg/injection, schedule: Q01DX009 (ip), vehicle: saline with Tween-80 91 % of control | [7] 91 % of control | [8] 87 % of control

OCc1ccccc1CO
inactive: dose: 100.0 mg/kg/injection, schedule: Q01DX001 (ip), vehicle: carboxymethylcellulose (CMC) 95 % of control | dose: 200.0 mg/kg/injection, schedule: Q01DX001 (ip), vehicle: carboxymethylcellulose (CMC) 95 % of control | dose: 400.0 mg/kg/injection, schedule: Q01DX001 (ip), vehicle: carboxymethylcellulose (CMC) 98 % of control

Cn1cc(Cl)nc1CO
inactive: dose: 100.0 mg/kg/injection, schedule: Q01DX009 (ip), vehicle: saline sonified 91 % of control | [9] 91 % of control | dose: 200.0 mg/kg/injection, schedule: Q01DX009 (ip), vehicle: saline sonified 102 % of control | [5] 107 % of control | dose: 400.0 mg/kg/injection, schedule: Q01DX009 (ip), vehicle: saline sonified 93 % of control | [6] 102 % of control

c1cc[n+]2c(c1)-c1cccc[n+]1CC2
inactive: [10] 108 % of control | dose: 12.5 mg/kg/injection, schedule: Q01DX009 (ip), vehicle: saline 104 % of control | dose: 12.5 mg/kg/injection, schedule: Q04DX003 (ip), vehicle: saline 104 % of control | dose: 15.0 mg/kg/injection, schedule: Q01DX001 (ip), vehicle: saline 95 % of control | [2] 104 % of control | dose: 30.0 mg/kg/injection, schedule: Q01DX001 (ip), vehicle: saline 102 % of control | [3] 101 % of control | dose: 60.0 mg/kg/injection, schedule: Q01DX001 (ip), vehicle: saline 102 % of control | dose: 75.0 mg/kg/injection, schedule: Q01DX001 (ip), vehicle: saline 95 % of control

C=C(C)CNC(N)=S
inactive: dose: 75.0 mg/kg/injection, schedule: Q04DX003 (ip), vehicle: Klucel (hydroxypropylcellulose) (HPC) 98 % of control | dose: 100.0 mg/kg/injection, schedule: Q01DX001 (ip), vehicle: Klucel (hydroxypropylcellulose) (HPC) 105 % of control | dose: 150.0 mg/kg/injection, schedule: Q04DX003 (ip), vehicle: Klucel (hydroxypropylcellulose) (HPC) 89 % of control | dose: 200.0 mg/kg/injection, schedule: Q01DX001 (ip), vehicle: Klucel (hydroxypropylcellulose) (HPC) 98 % of control | dose: 300.0 mg/kg/injection, schedule: Q04DX003 (ip), vehicle: Klucel (hydroxypropylcellulose) (HPC) 110 % of control | dose: 400.0 mg/kg/injection, schedule: Q01DX001 (ip), vehicle: Klucel (hydroxypropylcellulose) (HPC) 105 % of control

O=[N+]([O-])c1ccc(/C=N/N2CCCCC2)s1
inactive: [11] 97 % of control | [12] 92 % of control | [13] 89 % of control

Clc1ccc(/C=C/c2ccccn2)c(Cl)c1
inactive: dose: 100.0 mg/kg/injection, schedule: Q04DX002 (ip), vehicle: gum acacia 109 % of control | dose: 200.0 mg/kg/injection, schedule: Q04DX002 (ip), vehicle: gum acacia 95 % of control | dose: 400.0 mg/kg/injection, schedule: Q04DX002 (ip), vehicle: gum acacia 87 % of control

CN(C)CC(=O)c1ccc(Cl)cc1
inactive: dose: 50.0 mg/kg/injection, schedule: Q01DX009 (ip), vehicle: saline 87 % of control | dose: 100.0 mg/kg/injection, schedule: Q01DX009 (ip), vehicle: saline 102 % of control

CC(=O)[O][Hg][CH]1Cc2ccccc2O1 (stereo not drawn)
inactive: dose: 15.0 mg/kg/injection, schedule: Q01DX001 (ip), vehicle: carboxymethylcellulose (CMC) 94 % of control

CCOc1c(N2CCOCC2)c(=O)c1=O
inactive: [7] 103 % of control | [11] 93 % of control | [8] 97 % of control | [12] 101 % of control | [14] 91 % of control | [13] 93 % of control

S=P(c1ccccc1)(N1CCCCC1)N1CCCCC1
inactive: [9] 97 % of control | [5] 93 % of control

Cc1ccc(Nc2cc(=O)[nH]c(N)n2)cc1C
inactive: dose: 100.0 mg/kg/injection, schedule: Q01DX Z (ip), vehicle: methylcellulose (MC) 95 % of control | dose: 200.0 mg/kg/injection, schedule: Q01DX Z (ip), vehicle: methylcellulose (MC) 95 % of control

C(=C/n1cnc2ccccc21)/c1ccccc1
inactive: dose: 87.5 mg/kg/injection, schedule: Q04DX003 (ip), vehicle: Klucel (hydroxypropylcellulose) (HPC) 92 % of control | dose: 175.0 mg/kg/injection, schedule: Q04DX003 (ip), vehicle: Klucel (hydroxypropylcellulose) (HPC) 96 % of control | dose: 350.0 mg/kg/injection, schedule: Q04DX003 (ip), vehicle: Klucel (hydroxypropylcellulose) (HPC) 91 % of control

C=C(C)C1C2OC(=O)C1C1(O)CC3OC34C(=O)OC2C14C (stereo not drawn)
inactive: dose: 1.25 mg/kg/injection, schedule: Q01DX001 (ip), vehicle: other 109 % of control | dose: 2.5 mg/kg/injection, schedule: Q01DX001 (ip), vehicle: other 101 % of control

CCCCCCCCCCCCN=Cc1cc(Cl)ccc1O
inactive: dose: 222.0 mg/kg/injection, schedule: Q01DX Z (ip), vehicle: methylcellulose (MC) 95 % of control | dose: 333.0 mg/kg/injection, schedule: Q01DX Z (ip), vehicle: methylcellulose (MC) 102 % of control | dose: 500.0 mg/kg/injection, schedule: Q01DX Z (ip), vehicle: methylcellulose (MC) 102 % of control

O=C(c1ccncc1)n1cc2c(n1)CCCC2
inactive: [15] 87 % of control | [16] 92 % of control | [17] 95 % of control

CN(C/C=C/CN(C)P(=O)(N1CC1)N1CC1)P(=O)(N1CC1)N1CC1
inactive: [10] 107 % of control

COc1ccccc1OC(=O)c1ccccc1OC(=O)c1cccnc1
inactive: dose: 100.0 mg/kg/injection, schedule: Q04DX002 (ip), vehicle: saline with Tween-80 101 % of control | dose: 200.0 mg/kg/injection, schedule: Q04DX002 (ip), vehicle: saline with Tween-80 96 % of control | dose: 400.0 mg/kg/injection, schedule: Q04DX002 (ip), vehicle: saline with Tween-80 89 % of control

Cc1ccc([N+](=O)[O-])cc1NC(=O)Sc1ccc(C(C)(C)C)cc1
inactive: [15] 98 % of control | [16] 98 % of control | [17] 98 % of control

Cc1cc(CC(C)C)c(C(N)=O)cc1C
inactive: dose: 100.0 mg/kg/injection, schedule: Q01DX001 (ip), vehicle: other 108 % of control | dose: 200.0 mg/kg/injection, schedule: Q01DX001 (ip), vehicle: other 105 % of control | dose: 400.0 mg/kg/injection, schedule: Q01DX001 (ip), vehicle: other 103 % of control

COc1cc(Br)c(/C=C/C(=O)O)cc1OC
inactive: [11] 95 % of control | [12] 93 % of control | [13] 92 % of control

CC(C)=CCN(CC=C(C)C)CCC(C#N)(c1cccc2ccccc12)C(C)C (stereo not drawn)
inactive: [1] 101 % of control | [4] 93 % of control

CSc1nc(Cl)cc(N2CC2C)n1 (stereo not drawn)
inactive: dose: 25.0 mg/kg/injection, schedule: Q01DX Z (ip), vehicle: methylcellulose (MC) 96 % of control

CCOc1ccc2c(O)csc2c1
inactive: [7] 93 % of control | [8] 95 % of control | [14] 97 % of control

CCC1NC(=O)C(NC(=O)c2ncccc2O)C(C)OC(=O)C(c2ccccc2)NC(=O)C2CC(=O)CCN2C(=O)C(Cc2ccccc2)N(C)C(=O)C2CCCN2C1=O (stereo not drawn) (tested in a mixture with another compound)
inactive: dose: 18.75 mg/kg/injection, schedule: Q01DX009 (ip), vehicle: Klucel (hydroxypropylcellulose) (HPC) 91 % of control | dose: 37.5 mg/kg/injection, schedule: Q01DX009 (ip), vehicle: Klucel (hydroxypropylcellulose) (HPC) 107 % of control | dose: 75.0 mg/kg/injection, schedule: Q01DX009 (ip), vehicle: Klucel (hydroxypropylcellulose) (HPC) 98 % of control
